Patent US11447500B2, “Thienopyridine derivatives and pharmaceutical composition comprising same” (WELLMARKER BIO CO., LTD., priority 2018, dated 2022)

Key:
[1] = tested on: HT29 cells; test: Cytotoxicity MTS assay, HT29; format: cell-based; conditions: Homo sapiens, HT-29, 72 hours
Protocol: (§1) In order to confirm the specific cytotoxicity of the drugs, the cultured cells were treated with 0.05% trypsin/EDTA (0.5% trypsin EDTA (10×), Product No.: 15400-054, GIBCO) to detach them from the culture dish, and 3,000 cells (KM12C) or 2,000 cells (HT29, Colo 320 HSR) were dispensed into each well.
(§2) After 24 hours, sample compounds were dissolved in DMSO (Product No.: D8418-250ML, SIGMA) to make 10 mM stock solutions. As the sample compounds, the compounds synthesized in the examples of the present invention and the compounds of the comparative examples were used.
(§3) The cells were treated with the sample compound dilutions, and cultured in a 5% CO2 incubator at 37° C. for 72 hours.
(§4) Thereafter, 20 μL of MTS solution (CellTiter™ 96 Aqueous One Solution Cell Proliferation Assay, Product No.: G3581, Promega) was dispensed into each well and mixed well, and the cells were incubated for 1 to 4 hours at 37° C. in a 5% CO2 incubator.

[2] = tested on: RON-mutated (Δ160) HT-29 colon cancer cell line; test: Cell killing efficacy, trypan blue exclusion assay, HT-29; format: cell-based; conditions: HT29 cell, 48 hours
Protocol: (§5) Two colon cancer cell lines, RON-activated KM12C (80015, KCLB, MEM+10% FBS) and RON-mutated (Δ160) HT-29 (30038, KCLB, RPMI+10% FBS) were prepared in 6-well plates at 5×10^4 cells/well, respectively. After 24 hours, while freshly changing the medium, the sample compounds were added to the wells at a concentration of 1 μM or 5 μM and the plates were allowed to stand for 48 hours.
(§6) As the sample compounds, the compounds synthesized in the examples of the present invention and the compounds of the comparative examples were used.
(§7) After 48 hours, the cell suspensions were collected and centrifuged (1,500 rpm, 4 min.) to obtain the cells, and live cells and dead cells were quantitated (n=2) through a trypan blue (15250-061, Gibco) exclusion assay. The statistical analysis was performed using Excel™ T-test from Microsoft.
(§8) The cell death rates of the compounds of Examples and Comparative Examples were respectively measured and the results are shown in Table 4 as relative ratios to Comparative Example 1.

[3] = biological target: T1, RON kinase (Homo sapiens, UniProt Q04912); test: RON kinase enzyme inhibitory activity, FRET (TR-FRET) technique; format: biochemical; conditions: 60 min reaction
T1 construct: purchased Carna Bioscience
Protocol: The enzyme inhibitory activity (IC50) of the thienopyridine derivative was measured using FRET (fluorescence resonance energy transfer) technique. RON kinase (Carna Bioscience) was diluted with a kinase assay buffer (50 mM HEPES pH 7.5, 1 mM EGTA, 10 mM MgCl2, 2 mM DTT, and 0.01% Tween-20) to a concentration of 2× (0.4 nM) the final reaction concentration and the dilution was added to a 384-well plate at 5 μL/well. As sample compounds, the compounds synthesized in the examples of the present invention and the compounds of the comparative examples were used. The sample compounds were respectively dissolved in 100% DMSO to obtain 1 mM stock solutions, which were then subjected to eight 10-fold serial dilutions. The sample compounds were diluted with the kinase assay buffer to a concentration of 4× the final reaction concentration, and the dilutions were added to the 384-well plate at 2.5 μL/well. The plate was incubated at room temperature for 15 minutes. Next, 0.25 M ATP solution (Sigma Aldrich) was diluted with the kinase reaction buffer to a concentration of 4× (60 μM) the final reaction concentration, and a tyrosine peptide substrate (Perkin-Elmer) was diluted therein to a concentration of 4× (400 nM) the final reaction concentration. The dilution was added to the 384-well plate at 2.5 μL/well. Then, the 384-well plate was incubated at room temperature and the reaction was allowed to proceed for 60 minutes. After 60 minutes, EDTA (Sigma Aldrich) was diluted with TR-FRET detection buffer (Perkin-Elmer) to a concentration of 4× (40 mM) the final reaction concentration. A europium-labeled anti-phosphotyrosine antibody (Perkin-Elmer) was diluted in the above EDTA dilution to a concentration of 4× (8 nM) the final reaction concentration to prepare a stop solution of the RON kinase reaction. The stop solution was added to the 384-well plate at 10 μL/well to terminate the reaction, and the plate was incubated at room temperature for 60 minutes. Thereafter, the plate was read on Victor X5 plate reader (Perkin-Elmer). At this time, the excitation wavelength was 340 nm and the emission wavelengths were 620 nm and 665 nm. The IC50 values of the sample compounds were determined using GraphPad Prism™ 5 by expressing the emission energy at 665 nm as a function of the sample compound concentration.

[4] = tested on: RON-activated KM12C colon cancer cell line; test: Cell killing efficacy, trypan blue exclusion assay, KM12C; format: cell-based; conditions: 48 hours
Protocol: as §5, §6, §7, §8

[5] = tested on: KM12C cells; test: Cytotoxicity MTS assay, KM12C; format: cell-based; conditions: Homo sapiens, 72 hours
Protocol: as §1, §2, §3, §4

T1 sequence (Q04912 25-1400): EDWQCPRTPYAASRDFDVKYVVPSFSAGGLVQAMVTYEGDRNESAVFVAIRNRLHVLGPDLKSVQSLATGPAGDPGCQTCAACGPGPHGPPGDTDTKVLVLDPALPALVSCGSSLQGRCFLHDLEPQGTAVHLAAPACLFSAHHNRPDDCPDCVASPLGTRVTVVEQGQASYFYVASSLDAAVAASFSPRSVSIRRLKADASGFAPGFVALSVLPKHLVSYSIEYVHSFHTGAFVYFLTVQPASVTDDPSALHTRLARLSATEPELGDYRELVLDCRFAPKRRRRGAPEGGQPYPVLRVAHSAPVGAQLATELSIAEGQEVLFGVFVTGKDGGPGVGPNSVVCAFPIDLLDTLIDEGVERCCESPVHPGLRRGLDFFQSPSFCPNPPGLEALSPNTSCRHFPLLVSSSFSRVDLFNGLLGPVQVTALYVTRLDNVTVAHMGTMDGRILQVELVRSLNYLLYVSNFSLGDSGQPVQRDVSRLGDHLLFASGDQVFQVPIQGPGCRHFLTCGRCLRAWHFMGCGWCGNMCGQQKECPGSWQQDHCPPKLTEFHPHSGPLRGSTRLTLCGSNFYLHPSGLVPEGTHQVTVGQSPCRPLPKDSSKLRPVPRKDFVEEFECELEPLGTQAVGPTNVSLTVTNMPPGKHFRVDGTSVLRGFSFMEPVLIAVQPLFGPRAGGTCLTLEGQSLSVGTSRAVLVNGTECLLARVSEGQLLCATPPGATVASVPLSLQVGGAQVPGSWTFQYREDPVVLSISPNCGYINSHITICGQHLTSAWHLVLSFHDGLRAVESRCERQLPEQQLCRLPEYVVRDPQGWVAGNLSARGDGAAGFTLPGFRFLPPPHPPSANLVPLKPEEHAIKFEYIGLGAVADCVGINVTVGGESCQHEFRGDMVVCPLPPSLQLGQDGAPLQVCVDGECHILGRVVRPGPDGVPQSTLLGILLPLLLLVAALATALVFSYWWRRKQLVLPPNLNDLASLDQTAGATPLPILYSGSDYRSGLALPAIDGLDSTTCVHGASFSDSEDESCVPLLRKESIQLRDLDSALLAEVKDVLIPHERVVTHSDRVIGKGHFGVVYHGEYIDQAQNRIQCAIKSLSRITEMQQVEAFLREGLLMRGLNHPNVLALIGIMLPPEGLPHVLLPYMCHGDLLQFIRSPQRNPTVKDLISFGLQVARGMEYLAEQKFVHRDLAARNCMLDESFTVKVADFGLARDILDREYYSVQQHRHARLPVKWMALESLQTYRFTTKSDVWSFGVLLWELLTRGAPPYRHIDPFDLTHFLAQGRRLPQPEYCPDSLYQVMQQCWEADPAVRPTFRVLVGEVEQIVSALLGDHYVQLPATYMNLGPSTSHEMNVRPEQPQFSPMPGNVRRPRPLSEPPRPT

Row | SMILES | IC50 [3] [µM] | IC50 [1] [µM] | Cell death rate (Relative to Comp. Ex. 1) ([2]; 1 μM) | Cell death rate (Relative to Comp. Ex. 1) ([2]; 5 μM) | Cell death rate (Relative to Comp. Ex. 1) ([4]; 1 μM) | Cell death rate (Relative to Comp. Ex. 1) ([4]; 5 μM) | IC50 [5] [µM]
1 | Cc1ccc(C(=O)Nc2ccc(Oc3cc4cnn(C)c4cc3-c3cn[nH]c3)c(F)c2)c(=O)n1-c1ccc(F)cc1 [Comp. Ex. 3, N-(3-fluoro-4-(1-methyl-6-(1H-pyrazol-4-yl)-1H-indazol-5-yloxy)phenyl)-1-(4-fluorophenyl)-6-methyl-2-oxo-1,2-dihydropyridine-3-carboxamide, reference compound] | 0.00374 | 10.8 | x 0.83 | x 0.52 | x 0.54 | x 0.33 | 0.117
2 | CCOc1ccn(-c2ccccc2)c(=O)c1C(=O)Nc1ccc(Oc2ccnc3cc(-c4ccc(CNCCOC)cn4)sc23)c(F)c1.Cl [Example 1, 4-ethoxy-N-(3-fluoro-4-{[2-(5-{[(2-methoxyethyl)amino]methyl}pyridin-2-yl)thieno[3,2-b]pyridin-7-yl]oxy}phenyl)-2-oxo-1-phenyl-1,2-dihydropyridine-3-carboxamide hydrochloride] | 0.00051 | 1.1 | x 4.06 | x 2.41 | x 3.37 | x 2.47 | 0.045
3 | CCOc1ccn(-c2cccc(F)c2)c(=O)c1C(=O)Nc1ccc(Oc2ccnc3cc(-c4ccc(CNCCOC)cn4)sc23)c(F)c1.Cl [Example 14, 4-ethoxy-N-(3-fluoro-4-{[2-(5-{[(2-methoxyethyl)amino]methyl}pyridin-2-yl)thieno[3,2-b]pyridin-7-yl]oxy}phenyl)-1-(3-fluorophenyl)-2-oxo-1,2-dihydropyridine-3-carboxamide Hydrochloride] | 0.00045 | 0.668 | x 1.59 | x 3.81 | x 1.58 | x 1.43 | 0.063
4 | COCCNCc1ccc(-c2cc3nccc(Oc4ccc(NC(=O)c5ccnn(-c6ccc(F)cc6)c5=O)cc4F)c3s2)nc1.Cl [Example 20, N-(3-fluoro-4-[{2-(5-[{(2-methoxyethyl)amino}methyl]pyridin-2-yl)thieno[3,2-b]pyridin-7-yl}oxy]phenyl)-2-(4-fluorophenyl)-3-oxo-2,3-dihydropyridazine-4-carboxamide Hydrochloride] | 0.00247 | > 10 | x 0.75 | x 1.13 | x 1.07 | x 1.11 | 0.01
5 | COCCNCc1ccc(-c2cc3nccc(Oc4ccc(NC(=O)c5ccc(C)n(-c6ccccc6)c5=O)cc4F)c3s2)nc1.Cl [Example 21, N-(3-fluoro-4-{[2-(5-{[(2-methoxyethyl)amino]methyl}pyridin-2-yl)thieno[3,2-b]pyridin-7-yl]oxy}phenyl)-6-methyl-2-oxo-1-phenyl-1,2-dihydropyridine-3-carboxamide Hydrochloride] | 0.00056 | 1.3 | x 1.30 | x 4.10 | x 0.93 | x 4.06 | 1.5
6 | COCCNCc1ccc(-c2cc3nccc(Oc4ccc(NC(=O)c5ccc(C)n(-c6ccc(F)cc6)c5=O)cc4F)c3s2)nc1.Cl [Example 22, N-(3-fluoro-4-{[2-(5-{[(2-methoxyethyl)amino]methyl}pyridin-2-yl)thieno[3,2-b]pyridin-7-yl]oxy}phenyl)-1-(4-fluorophenyl)-6-methyl-2-oxo-1,2-dihydropyridine-3-carboxamide Hydrochloride] | 0.00044 | 1.18 | x 1.07 | x 1.71 | x 1.48 | x 1.61 | 0.001
7 | COCCNCc1ccc(-c2cc3nccc(Oc4ccc(NC(=O)c5c(C)ccn(-c6ccc(F)cc6)c5=O)cc4F)c3s2)nc1.Cl [Example 25, N-(3-fluoro-4-{[2-(5-{[(2-methoxyethyl)amino]methyl}pyridin-2-yl)thieno[3,2-b]pyridin-7-yl]oxy}phenyl)-1-(4-fluorophenyl)-4-methyl-2-oxo-1,2-dihydropyridine-3-carboxamide Hydrochloride] | 0.00023 | 1.38 | x 3.13 | x 2.97 | x 0.44 | x 0.69 | 0.025

More lines, main results first:

Row | IC50 [3] [µM] | SMILES | IC50 [1] [µM] | Cell death rate (Relative to Comp. Ex. 1) ([2]; 1 μM) | Cell death rate (Relative to Comp. Ex. 1) ([2]; 5 μM) | Cell death rate (Relative to Comp. Ex. 1) ([4]; 1 μM) | Cell death rate (Relative to Comp. Ex. 1) ([4]; 5 μM) | IC50 [5] [µM]
8 | 0.00056 | COCCNCc1ccc(-c2cc3nccc(Oc4ccc(NC(=O)c5c(C)ccn(-c6ccccc6)c5=O)cc4F)c3s2)nc1.Cl [Example 28, N-(3-fluoro-4-{[-2-(5-{[(2-methoxyethyl)amino]methyl}pyridin-2-yl)thieno[3,2-b]pyridin-7-yl]oxy}phenyl)-4-methyl-2-oxo-1-phenyl-1,2-dihydropyridine-3-carboxamide Hydrochloride] | 0.908 | x 1.46 | x 2.65 | x 1.22 | x 1.58 | 0.059
9 | 0.00039 | CCOc1ccn(-c2ccc(F)cc2)c(=O)c1C(=O)Nc1ccc(Oc2ccnc3cc(-c4ccc(CN5CCOCC5)cn4)sc23)c(F)c1.Cl [Example 31, 4-ethoxy-N-[3-fluoro-4-({2-[5-(morpholinomethyl)pyridin-2-yl]thieno[3,2-b]pyridin-7-yl}oxy)phenyl]-1-(4-fluorophenyl)-2-oxo-1,2-dihydropyridine-3-carboxamide Hydrochloride] | 0.609 | x 2.11 | x 1.21 | x 1.52 | x 1.17 | 0.007
10 | 0.00081 | CCOc1ccn(-c2ccccc2)c(=O)c1C(=O)Nc1ccc(Oc2ccnc3cc(-c4ccc(CN5CCOCC5)cn4)sc23)c(F)c1.Cl [Example 32, 4-ethoxy-N-[3-fluoro-4-({2-[5-(morpholinomethyl)pyridin-2-yl]thieno[3,2-b]pyridin-7-yl}oxy)phenyl]-2-oxo-1-phenyl-1,2-dihydropyridine-3-carboxamide Hydrochloride] | 0.325 | x 1.55 | x 1.45 | x 1.52 | x 1.11 | 0.003
